Experiment: Compound was evaluated for inhibition of Protease

IC50	SMILES
1000 nM	C[C@H](NC(=O)[C@H](Cc1ccccc1)NC(=O)OCc1ccccc1)C(=O)[C@H]1CO1 [[(S)-1-((S)-1-Methyl-2-(R)-oxiranyl-2-oxo-ethylcarbamoyl)-2-phenyl-ethyl]-carbamic acid benzyl ester]
80 nM	C[C@H](NC(=O)[C@H](Cc1ccccc1)NC(=O)OCc1ccccc1)C(=O)[C@@H]1CO1 [[(S)-1-((S)-1-Methyl-2-(S)-oxiranyl-2-oxo-ethylcarbamoyl)-2-phenyl-ethyl]-carbamic acid benzyl ester]
> 1000 nM	O=C(N[C@@H](Cc1ccccc1)C(=O)N[C@@H](CCc1ccccc1)C(=O)[C@H]1CO1)OCc1ccccc1 [{(S)-1-[(S)-1-((R)-Oxiranecarbonyl)-3-phenyl-propylcarbamoyl]-2-phenyl-ethyl}-carbamic acid benzyl ester]
10 nM	O=C(N[C@@H](Cc1ccccc1)C(=O)N[C@@H](CCc1ccccc1)C(=O)[C@@H]1CO1)OCc1ccccc1 [{(S)-1-[(S)-1-((S)-Oxiranecarbonyl)-3-phenyl-propylcarbamoyl]-2-phenyl-ethyl}-carbamic acid benzyl ester]

Source: BindingDB's records for doi:10.1016/s0960-894x(98)00494-6 (University of Michigan, 1999)
